Data on nine compounds can be found in US20220132846A1, “1-PYRIDYL-PYRAZOLYL AMIDE COMPOUNDS AND PREPARATION AND USES THEREOF” (HUNAN RESEARCH INSTITUTE OF CHEMICAL INDUSTRY CO., LTD., priority 2019, published 2022).

Read-outs that look alike come from different tables or passages of the source.

Holding throughout (assay type): in vivo
Data set [1] concerns Diamondback moth (Plutella xylostella (Linnaeus)). Kind of data set: Test against diamondback moth, leaf disc dip. The conditions noted are these: after 72 hours; for LC50: Plutella xylostella, foliar, read-out: Lethal medium concentration LC50 against diamondback moth; for Activity against diamondback moth (in words): second-instar larvae. The method, then: (§1) The test compound was dissolved in an appropriate solvent such as N,N-dimethylformamide, and then diluted with 0.2% aqueous solution of Tween 80 to the desired concentration, Those without the test compounds were set as blank controls, the treatments were replicated 3 times. The cabbage leaves were perforated to get 18 mm diameter leaf discs by a hole puncher, 5 leaf discs were dipped in the test solution for 10 seconds and then put into a Petri dish (diameter 90 mm) padded with moisturizing filter paper, after air-drying, the leaf discs were infested with no less than ten second-instar larvae of test insects which were starved for 4 hours, and then the dish was covered and placed in a chamber for culture. After 72 hours, the number of dead insects was investigated, the mortality was calculated, and the regression equation, correlation coefficient (r) and the median lethal concentration (LC50) were obtained using Probit analysis method.

Data set [2] has as its system Armyworm (Mythimna separata (Walker)). The data set can be described thus: Test against armyworm, Potter tower method. The conditions noted are these: for mortality at 12.5 µg/mL / mortality at 50 µg/mL / mortality at 500 µg/mL: Mythimna separata, read-out: Activity (mortality) level against armyworm; for Activity against armyworm, further screening (in words): compared with chlorantraniliprole (D1). Put shortly:
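Third-instar larvae, ten per dish on corn leaf fragments, were sprayed in a Potter tower with 1 mL of compound in DMF diluted in 0.2% Tween 80, in triplicate. Mortality was scored after 72 h and reported as mean mortality against a solvent blank.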

The subject of another data set is Aphis fabae. The data set can be described thus: Test against aphid, leaf dip method (Aphis fabae). As to conditions: foliar; for mortality at 12.5 µg/mL / mortality at 50 µg/mL / mortality at 200 µg/mL / mortality at 500 µg/mL: read-out: Activity (mortality) level against Aphis fabae; for LC50: read-out: LC50 against Aphis fabae. Put shortly:
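Horsebean seedlings carrying at least twenty 3-day-old Aphis fabae dipped 5 seconds in compound solutions (DMF, diluted in 0.2% aqueous Tween 80), three replicates with solvent blank. Live and dead insects counted after 24 hours.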

Data set [3] deals with Spodoptera litura (Fabricius). Kind of data set: Test against Spodoptera litura, leaf disc dip. The conditions noted are these: after 72 hours; for Median lethal concentration LC50 against Spodoptera litura, compared with D1: same conditions; for Activity against Spodoptera litura (in words): second-instar larvae. The method, then:
as §1

The mark [4] stands for this setting: 12.5 mg/L, third-instar larvae, after 72 hours.
Setting [5] is: 50 mg/L, third-instar larvae, after 72 hours.
The mark [6] stands for this setting: 500 mg/L, third-instar larvae, after 72 hours.

For orientation: mortality means the share of the test organisms that died. Consider `CNC(=O)c1cc(Cl)cc(Cl)c1N(C)C(=O)c1cc(Br)nn1-c1ncccc1Cl` [Compound 1, N-[2,4-dichloro-6-[(methylamino)carbonyl]phenyl]-N-methyl-1-(3-chloro-2-pyridinyl)-3-bromo-1H-pyrazole-5-carboxamide], for which the LC50 (in data set [1]; with Aphis fabae (further test)) was below 1 mg/L each time. Also, the “Activity against diamondback moth (in words)” value in data set [1] is reported as “high activity at very low concentration”. In data set [2] (1.25 mg/L), the Activity against armyworm is reported as 75%. The mortality at 12.5 µg/mL in data set [2] (setting [4]) is 90 to 100%; in the data set on Aphis fabae (12.5 mg/L, after 24 hours), 90 to 100%. Besides, the mortality at 50 µg/mL in data set [2] (setting [5]) lay in the range of 90 to 100%; in the data set with Aphis fabae (50 mg/L, after 24 hours), 90 to 100%. For the same compound, the mortality at 500 µg/mL in data set [2] (setting [6]) lay in the range of 90 to 100%; in the data set with Aphis fabae (500 mg/L, after 24 hours), 90 to 100%. Besides, the “Activity against armyworm, further screening (in words)” value (“Activity against armyworm … (in words)” for short) in data set [2] is on record as “excellent activity”. For the same compound, the mortality at 200 µg/mL with Aphis fabae (200 mg/L, after 24 hours) was in the range of 90 to 100%. The “Median lethal concentration LC50 against Spodoptera litura, compared with D1” value in data set [3] is reported as “lower than that of chlorantraniliprole (D1)”. The “Activity against Spodoptera litura (in words)” value in data set [3] is listed as “high activity at very low concentration”.
As to `CCNC(=O)c1cc(Cl)cc(Cl)c1N(C)C(=O)c1cc(Br)nn1-c1ncccc1Cl` [Compound 2, N-[2,4-dichloro-6-[(ethylamino)carbonyl]phenyl]-N-methyl-1-(3-chloro-2-pyridinyl)-3-bromo-1H-pyrazole-5-carboxamide], the LC50 (in data set [1]; in the data set with Aphis fabae (further test)) was below 1 mg/L in each case. Moreover, in data set [1], the “Activity against diamondback moth (in words)” value is “high activity at very low concentration”. Further, the mortality at 12.5 µg/mL in data set [2] (setting [4]) was 90 to 100%; with Aphis fabae (12.5 mg/L, after 24 hours) it was 90 to 100%. Further, the mortality at 50 µg/mL in data set [2] (setting [5]) lay in the range of 90 to 100%; in the data set on Aphis fabae (50 mg/L, after 24 hours), 90 to 100%. The mortality at 500 µg/mL in data set [2] (setting [6]) was in the range of 90 to 100%; in the data set with Aphis fabae (500 mg/L, after 24 hours), 90 to 100%. Also, in data set [2], the “Activity against armyworm … (in words)” value is on record as “excellent activity”. Besides, the mortality at 200 µg/mL in the data set on Aphis fabae (200 mg/L, after 24 hours) was 90 to 100%. The “Median lethal concentration LC50 against Spodoptera litura, compared with D1” value in data set [3] is reported as “lower than that of chlorantraniliprole (D1)”. Also, the “Activity against Spodoptera litura (in words)” value in data set [3] is reported as “high activity at very low concentration”.
Regarding `CCN(C(=O)c1cc(Br)nn1-c1ncccc1Cl)c1c(Cl)cc(Cl)cc1C(=O)NC` [Compound 9, N-[2,4-dichloro-6-[(methylamino)carbonyl]phenyl]-N-ethyl-1-(3-chloro-2-pyridinyl)-3-bromo-1H-pyrazole-5-carboxamide], the “Activity against diamondback moth (in words)” value in data set [1] was “high activity at very low concentration”. Also, the mortality at 50 µg/mL in data set [2] (setting [5]) was 90 to 100%; in the data set with Aphis fabae (50 mg/L, after 24 hours), 90 to 100%. The mortality at 500 µg/mL in data set [2] (setting [6]) lay within 90 to 100%; with Aphis fabae (500 mg/L, after 24 hours) it was 90 to 100%. Moreover, the “Activity against armyworm … (in words)” value in data set [2] is given as “excellent activity”. Moreover, the mortality at 12.5 µg/mL in the data set on Aphis fabae (12.5 mg/L, after 24 hours) was in the range of 90 to 100%. For the same compound, the mortality at 200 µg/mL in the data set on Aphis fabae (200 mg/L, after 24 hours) was 90 to 100%. The “Activity against Spodoptera litura (in words)” value in data set [3] is listed as “high activity at very low concentration”.
On to `CCNC(=O)c1cc(Cl)cc(Cl)c1N(CC)C(=O)c1cc(Br)nn1-c1ncccc1Cl` [Compound 10, N-[2,4-dichloro-6-[(ethylamino)carbonyl]phenyl]-N-ethyl-1-(3-chloro-2-pyridinyl)-3-bromo-1H-pyrazole-5-carboxamide], for which, in data set [1], the “Activity against diamondback moth (in words)” value was “high activity at very low concentration”. The mortality at 12.5 µg/mL fell in the range of 90 to 100% in data set [2] (setting [4]) and 90 to 100% in the data set on Aphis fabae (12.5 mg/L, after 24 hours). Besides, the mortality at 50 µg/mL in data set [2] (setting [5]) lay within 90 to 100%; in the data set with Aphis fabae (50 mg/L, after 24 hours), 90 to 100%. Moreover, the mortality at 500 µg/mL in data set [2] (setting [6]) lay in the range of 90 to 100%; in the data set on Aphis fabae (500 mg/L, after 24 hours), 90 to 100%. Moreover, in data set [2], the “Activity against armyworm … (in words)” value is reported as “excellent activity”. The mortality at 200 µg/mL in the data set on Aphis fabae (200 mg/L, after 24 hours) was 90 to 100%. The LC50 in the data set on Aphis fabae (further test) is below 1 mg/L. Also, in data set [3], the “Median lethal concentration LC50 against Spodoptera litura, compared with D1” value was “lower than that of chlorantraniliprole (D1)”. The “Activity against Spodoptera litura (in words)” value in data set [3] is given as “high activity at very low concentration”.
With `CN(C)C(=O)c1cc(Cl)cc(Cl)c1N(C)C(=O)c1cc(Br)nn1-c1ncccc1Cl` [Compound 11, N-[2,4-dichloro-6-[(dimethylamino)carbonyl]phenyl]-N-methyl-1-(3-chloro-2-pyridinyl)-3-bromo-1H-pyrazole-5-carboxamide], the LC50 (in data set [1]; in the data set on Aphis fabae (further test)) was below 1 mg/L throughout. Moreover, in data set [1], the “Activity against diamondback moth (in words)” value is listed as “high activity at very low concentration”. Besides, the mortality at 12.5 µg/mL in data set [2] (setting [4]) fell in the range of 90 to 100%; in the data set with Aphis fabae (12.5 mg/L, after 24 hours), 90 to 100%. Further, the mortality at 50 µg/mL in data set [2] (setting [5]) lay in the range of 90 to 100%; in the data set on Aphis fabae (50 mg/L, after 24 hours), 90 to 100%. The mortality at 500 µg/mL lay within 90 to 100% in data set [2] (setting [6]) and 90 to 100% in the data set on Aphis fabae (500 mg/L, after 24 hours). In data set [2], the “Activity against armyworm … (in words)” value is “excellent activity”. For the same compound, the mortality at 200 µg/mL in the data set on Aphis fabae (200 mg/L, after 24 hours) is 90 to 100%. Besides, in data set [3], the “Activity against Spodoptera litura (in words)” value is given as “high activity at very low concentration”.
For `CCN(C)C(=O)c1cc(Cl)cc(Cl)c1N(C)C(=O)c1cc(Br)nn1-c1ncccc1Cl` [Compound 12, N-[2,4-dichloro-6-[(methyl(ethyl)amino)carbonyl]phenyl]-N-methyl-1-(3-chloro-2-pyridinyl)-3-bromo-1H-pyrazole-5-carboxamide], the “Activity against diamondback moth (in words)” value in data set [1] is recorded as “high activity at very low concentration”. Moreover, the mortality at 12.5 µg/mL was in the range of 90 to 100% in data set [2] (setting [4]) and 90 to 100% in the data set with Aphis fabae (12.5 mg/L, after 24 hours). The mortality at 50 µg/mL in data set [2] (setting [5]) lay within 90 to 100%; in the data set on Aphis fabae (50 mg/L, after 24 hours), 90 to 100%. For the same compound, the mortality at 500 µg/mL in data set [2] (setting [6]) is 90 to 100%; in the data set on Aphis fabae (500 mg/L, after 24 hours) it was 90 to 100%. In addition, in data set [2], the “Activity against armyworm … (in words)” value was “excellent activity”. In the data set on Aphis fabae (200 mg/L, after 24 hours), the mortality at 200 µg/mL was 90 to 100%. Further, the “Activity against Spodoptera litura (in words)” value in data set [3] is “high activity at very low concentration”.
`CCN(CC)C(=O)c1cc(Br)cc(C)c1N(CC)C(=O)c1cc(Br)nn1-c1ncccc1Cl` [Compound 49, N-[2-methyl-4-bromo-6-[(diethylamino)carbonyl]phenyl]-N-ethyl-1-(3-chloro-2-pyridinyl)-3-bromo-1H-pyrazole-5-carboxamide]: the mortality at 50 µg/mL in data set [2] (setting [5]) lay within 90 to 100%. In addition, the mortality at 500 µg/mL in data set [2] (setting [6]) was 90 to 100%; in the data set on Aphis fabae (500 mg/L, after 24 hours), 90 to 100%. For the same compound, the mortality at 200 µg/mL in the data set on Aphis fabae (200 mg/L, after 24 hours) is 90 to 100%.
Regarding `CNC(=O)c1cc(C#N)cc(C)c1NC(=O)c1cc(Br)nn1-c1ncccc1Cl` [Compound D2, cyantraniliprole, reference compound], in data set [2] (72 h), the mortality at 12.5 µg/mL was 90 to 100%, the mortality at 50 µg/mL was 90 to 100% and the mortality at 500 µg/mL is 90 to 100%. In addition, in the data set on Aphis fabae (24 h), the mortality at 12.5 µg/mL was in the range of 90 to 100%, the mortality at 50 µg/mL fell in the range of 90 to 100%, the mortality at 200 µg/mL lay within 90 to 100% and the mortality at 500 µg/mL lay in the range of 90 to 100%. Besides, the LC50 in the data set on Aphis fabae is above 1 mg/L.
As for `CC(NC(=O)c1cc(Cl)cc(Br)c1NC(=O)c1cc(Br)nn1-c1ncccc1Cl)C1CC1` (stereo not drawn) [Compound D3, cyclaniliprole, reference compound], in data set [2] (72 h), the mortality at 12.5 µg/mL was 70 to 90%, the mortality at 50 µg/mL was 90 to 100% and the mortality at 500 µg/mL is 90 to 100%. In the data set on Aphis fabae (24 h), the mortality at 12.5 µg/mL fell in the range of 90 to 100%, the mortality at 50 µg/mL lay within 90 to 100%, the mortality at 200 µg/mL lay in the range of 90 to 100% and the mortality at 500 µg/mL was 90 to 100%. Besides, the LC50 in the data set on Aphis fabae was above 1 mg/L.
